From article PMC12655682, “Screening-Identified Oxazole-4-Carboxamide KB-2777 Exhibits In Vitro Anti-Coronavirus Activity” (Pharmaceutics, 2025)
“Also recorded” adds a separate entry of the source.

Columns and labels:
HCoV-NL63 [1] = test: Infectious titer (TCID50) of HCoV-NL63 at 48 h; format: cell-based, Human coronavirus NL63
Procedure: HCoV-OC43 (KBPV-VR-8), HCoV-NL63 (KBPV-VR-88), and PEDV DR13 (originally described in [20]) were used. HCoV-NL63 was propagated in LLC-MK2 cells, and HCoV-OC43 and PEDV DR13 were propagated in Vero E6 cells. Virus-containing supernatants were clarified (2000× g, 10 min, 4 °C), aliquoted, and stored at −80 °C. Infectious titers (TCID50/mL) were determined on the corresponding host cell lines by the Spearman–Kärber method with back-titrations included in each experiment.
We sought to confirm whether the antiviral activity observed by RT-qPCR was also present at the level of infectious progeny virus. […] Bars represent mean ± SEM; n = 3 independent experiments (triplicate wells per concentration).

PEDV = test: Extracellular viral RNA by RT-qPCR of supernatants, PEDV/Vero E6; format: cell-based; settings: Porcine epidemic diarrhea virus, Vero C1008; PEDV/Vero E6, 72 h post-infection, n = 3
Procedure: At 72 h post-infection, 100–200 μL of culture supernatant was collected. Viral RNA was extracted using the QIAamp Viral RNA Mini Kit (Qiagen, Hilden, Germany)according to the manufacturer’s instructions and quantified by one-step RT-qPCR on a real-time thermocycler.
EC50 values were determined from concentration–response curves generated by 2-fold serial dilutions, with at least four concentration points per curve. Each measurement was performed in triplicate technical replicates. Unless otherwise indicated, data are presented as mean ± SEM from three independent biological experiments (n = 3).
For absolute quantification, synthetic DNA (oligonucleotide) standards corresponding to the NL63, OC43, and PEDV amplicons were used. Ten-fold serial dilutions were prepared to generate standard curves. Ct values were interpolated against the curves to obtain gene copies per reaction and converted to genome copies per mL by accounting for extraction and elution volumes and the qPCR input volume.

HCoV-NL63 [2] = test: Time-of-addition, spike (S) protein immunofluorescence assay, HCoV-NL63/LLC-MK2; format: cell-based, Human coronavirus NL63
Procedure: At 48 h post-infection, cells were fixed in 4% paraformaldehyde for 15 min, permeabilized with 0.1% Triton X-100, and blocked with 5% BSA. Samples were incubated with a virus-specific rabbit anti-S protein primary antibody, followed by a goat anti-rabbit IgG H&L (FITC) secondary antibody (Supplementary Table S1) and Hoechst nuclear counterstain. Images were acquired on an epifluorescence microscope. Using Fiji, binary thresholding and particle analysis (or Cell Counter) were applied to count the total number of cells and the number of S-positive cells per field, and the infection rate per well was calculated as (S-positive cells/total cells × 100%). At least eight randomly selected fields per well were analyzed.
TOA experiments were performed in HCoV-NL63–infected LLC-MK2 cells using four regimens: • Full: compound present from −24 h to 48 h relative to infection. • Pre-treatment: −24 h to −1 h, wash at −1 h, then infection in drug-free medium. • Co-treatment: −1 h to 0 h during adsorption only, wash at 0 h. • Post-treatment: 0 h to 48 h after adsorption.
Unless otherwise specified, infections were carried out at 100 TCID50 per well with 1 h adsorption at 37 °C, and compounds were used at 20 µM. Primary readout was S protein IFA at 48 h; EZ-Cytox and TCID50 at 48 h for the same regimens are provided in Supplementary Data (Figures S14 and S15).

SMILES: COc1cccc(-c2oc(-c3ccc(C(F)(F)F)cc3)nc2C(=O)NCC2CC2)c1 [KB-2777, N-(cyclopropylmethyl)-5-(3-methoxyphenyl)-2-(4-(trifluoromethyl)phenyl)Oxazole-4-Carboxamide]
- infectious titer (TCID50) vs virus control (HCoV-NL63 [1]; HCoV-NL63, 48 h, post-treatment, 12.5 µM and 25 µM, p < 0.0001, n = 3): decreased; also recorded: significant reductions
- infectious titers (log10[TCID50/mL]) across TOA regimens (HCoV-NL63 [1]; HCoV-NL63, 48 h post-infection, full/pre/co/post): decreased in a regimen-dependent manner, largest with full exposure, smaller with pre- and post-treatment, and minimal with co-treatment
- EC50 (PEDV): 1590 nM
- inhibition by S protein IFA, post-treatment (HCoV-NL63 [2]; HCoV-NL63/LLC-MK2, 20 µM, 0 h to 48 h, readout 48 h): retained measurable activity
- inhibition by S protein IFA, co-treatment (HCoV-NL63 [2]; HCoV-NL63/LLC-MK2, 20 µM, adsorption only (−1 h to 0 h), readout 48 h, vs virus-only DMSO control): little effect
- inhibition by S protein IFA, pre-treatment (HCoV-NL63 [2]; HCoV-NL63/LLC-MK2, 20 µM, pre-exposure with washout, readout 48 h): retained measurable activity
- inhibition by S protein IFA, full regimen (HCoV-NL63 [2]; HCoV-NL63/LLC-MK2, 20 µM, −24 h to 48 h, readout 48 h): greatest inhibition
- time-of-addition effect-size order of regimens (HCoV-NL63 [2]; full, pre, co, post regimens, across readouts): full > pre ≈ post > co; also recorded: full » pre ≈ post » co
